How the values were obtained:
[1] = Spacer leaving group cyclization release rate in pH 7.4 phosphate buffer (Example 39); settings: 2.18 mM, 50 mM pH 7.4 phosphate buffer, 20° C.
[2] = Oral administration of hydrocodone prodrugs co-dosed with Compound 109 to rats (Example 46); settings: co-dosed PO with KC-40 or KC-50 to rats
[3] = Oral administration of oxycodone prodrugs co-dosed with trypsin inhibitor Compound 109 to rats (Example 40); format: in vivo; settings: co-dosed PO with KC-12 or KC-17 to rats
[4] = Pharmacokinetics following PO administration of Compound KC-55 to rats (Example 48)
trypsin = molecular target: T1, trypsin (Bos taurus, UniProt P00760); test: In vitro trypsin-mediated cleavage of hydrocodone prodrugs (Example 44); format: biochemical, bovine; settings: conditions as Example 39
T1 construct: purchased Sigma-Aldrich T8003; host or cells: bovine pancreas
T1 sequence (P00760 24-246): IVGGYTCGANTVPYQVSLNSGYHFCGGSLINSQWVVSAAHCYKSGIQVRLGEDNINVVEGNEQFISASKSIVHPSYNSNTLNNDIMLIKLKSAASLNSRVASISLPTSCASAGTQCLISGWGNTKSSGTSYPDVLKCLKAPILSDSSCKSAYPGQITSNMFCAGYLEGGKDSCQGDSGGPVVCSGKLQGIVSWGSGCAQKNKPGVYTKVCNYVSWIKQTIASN
Procedure: The reactions were conducted at 37° C. for 24 h. Samples were collected at specified time points, transferred into 0.5% formic acid in acetonitrile to stop trypsin activity, and stored at less than −70° C. until analysis by LC-MS/MS.

With `COc1ccc2c3c1O[C@H]1C(OC(=O)N4CCCCC4CN)=CC[C@@]4(O)[C@@H](C2)N(C)CC[C@]314` (single isomer, unassigned; peak a) [KC-11 peak A, N-(oxycodone-6-enol-carbonyl)piperidine-2-methylamine] the “half-life (cyclization; compound disappearance)” value [1] was 1.30 ± 0.038 h.
For `COc1ccc2c3c1O[C@H]1C(OC(=O)N4CCCCC4CN)=CC[C@@]4(O)[C@@H](C2)N(C)CC[C@]314` (single isomer, unassigned; peak b) [KC-11 peak B, N-(oxycodone-6-enol-carbonyl)piperidine-2-methylamine], the “half-life (cyclization; compound disappearance)” value [1] was 0.876 ± 0.012 h.
With `N=C(N)c1ccc2cc(OC(=O)c3ccc(N=C(N)N)cc3)ccc2c1` [Compound 109, 6-carbamimidoylnaphthalen-2-yl 4-(diaminomethyleneamino)benzoate] the “effect of trypsin inhibitor on release of hydrocodone” value [2] was “attenuate release of hydrocodone by prodrugs of the embodiments” and the “effect of trypsin inhibitor on release of oxycodone” value [3] was “attenuate release of oxycodone by prodrugs of the embodiments”.
With `COc1ccc2c3c1O[C@H]1C(OC(=O)N4CCC(C(=O)O)CC4CNC(=O)[C@H](CCCNC(=N)N)NC(=O)CNC(C)=O)=CC[C@@]4(O)[C@@H](C2)N(C)CC[C@]314` (stereo partly drawn) [Compound KC-55, N-(oxycodone-6-enol-carbonyl)-[(2-methylamino)-piperidine-4-carboxylate]-L-arginine-glycine-acetate] the “release of oxycodone on oral administration” value ([4]; PO to rats) was “leads to release of oxycodone”.
`COc1ccc2c3c1O[C@H]1C(=O)CC[C@@]4(O)[C@@H](C2)N(C)CC[C@]314` [Oxycodone, oxycodone, reference compound] showed a Cmax ([4]; male, Sprague Dawley, rat, plasma, po, 10 mg/kg) of 14.7 ± 6.5 ng/mL.
“N-(hydrocodone-6-enol-carbonyl)-(2-methylamino)piperidine-4-carboxylate]-L-arginine-glycine-acetate [Compound KC-40]” gave an HC formation rate (trypsin) of 0.003 ± 0.00 μmol/h/BAEE U.

— patent US20160002291A1, “Active Agent Prodrugs with Heterocyclic Linkers” (Signature Therapeutics, Inc., priority 2011, published 2016)
